This is an account of results in patent US4617994A, “Determining residual oil saturation by injecting CO2 and base generating reactant” (priority 1985, dated 1986).

SMILES strings stand for the structures. Like-named read-outs stand apart in the source and are kept apart here.

The format of this data set is physicochemical.
The mark [1] stands for this setting: 206 °F, pH 6.0, 50 psig, 0.5 M/L NaCl, 0.05 mol/liter base generator.
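Note: hydrolysis of the base generator in aqueous solution, t1/2 given in hours as the time until half of it has reacted, with pH held steady during the run.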

Excerpt: In each case, the solution was maintained at a pressure of 50 psig during the test. The pH of the solution was maintained substantially constant by adding portions at 0.1 mol/liter sodium bicarbonate solution to the system while the hydrolysis was proceeding. Each base generator solution consisted of water containing 0.5 mol/liter sodium chloride and 0.05 mols/liter of the base generator.
*^1 This is the time, in hours, required for the base generator to be
This is a convenient way to measure the speed of a reaction.

`N#CO` [KOCN, Potassium Cyanate]: the “Half Life, t1/2” value was 19.6 h (78 °F, pH 6.0, 50 psig, 0.5 M/L NaCl, 0.05 mol/liter base generator); 68.6 h (78 °F, pH 6.5, 50 psig, 0.5 M/L NaCl, 0.05 mol/liter base generator); 206.4 h (78 °F, pH 7.0, 50 psig, 0.5 M/L NaCl, 0.05 mol/liter base generator); ~ 94.0 hours (99 °F, pH 7.0, 50 psig, 0.5 M/L NaCl, 0.05 mol/liter base generator); ~ 223.0 hours (99 °F, pH 7.5, 50 psig, 0.5 M/L NaCl, 0.05 mol/liter base generator); ~ 223.0 hours (116 °F, pH 8.0, 50 psig, 0.5 M/L NaCl, 0.05 mol/liter base generator).
As to `CC1CO1` (stereo not shown) [Propylene oxide, Propylene Oxide], the “Half Life, t1/2” value reads like this: (76 °F, pH 7.0, 50 psig, 0.5 M/L NaCl, 0.05 mol/liter base generator) 86.1 h; (106 °F, pH 6.0, 50 psig, 0.5 M/L NaCl, 0.05 mol/liter base generator) 26.5 h; (122 °F, pH 6.0, 50 psig, 0.5 M/L NaCl, 0.05 mol/liter base generator) 26.0 h; (122 °F, pH 7.0, 50 psig, 0.5 M/L NaCl, 0.05 mol/liter base generator) 35.6 h.
Regarding `O=C1CCC(=O)N1` [Succinimide], the “Half Life, t1/2” value is 184.1 h (177 °F, pH 6.0, 50 psig, 0.5 M/L NaCl, 0.05 mol/liter base generator); 28.4 h (177 °F, pH 7.0, 50 psig, 0.5 M/L NaCl, 0.05 mol/liter base generator); 31.3 h under setting [1].
Take `NC(N)=O` [Urea]: the “Half Life, t1/2” value by setting is: (0.5 m nacl water, pH 5.5) 8.4 h; (0.5 m nacl water, pH 6.2) 12.3 h; (0.5 m nacl water, pH 7) 45.2 h; (0.5 m nacl water, pH 8) 15.9 h.
For the molecule `O=N[O-].[Na+]` [NaNO2, Sodium Nitrite], the “Half Life, t1/2” value amounted to 80.0 h (212 °F, pH 6.0, 50 psig, 0.5 M/L NaCl, 0.05 mol/liter base generator); 17.5 h (279 °F, pH 5.5, 50 psig, 0.5 M/L NaCl, 0.05 mol/liter base generator); 49.2 h (279 °F, pH 6.0, 50 psig, 0.5 M/L NaCl, 0.05 mol/liter base generator); 141.4 h (279 °F, pH 7.0, 50 psig, 0.5 M/L NaCl, 0.05 mol/liter base generator); 84.9 h (280 °F, pH 6.5, 50 psig, 0.5 M/L NaCl, 0.05 mol/liter base generator); 73.2 h (296 °F, pH 6.5, 50 psig, 0.5 M/L NaCl, 0.05 mol/liter base generator).
For the molecule `O=C1C=CC(=O)N1` [Maleimide], the “Half Life, t1/2” value (76 °F, pH 6.0, 50 psig, 0.5 M/L NaCl, 0.05 mol/liter base generator) came to 450.1 h; the “Half Life, t1/2” value (96 °F, pH 6.0, 50 psig, 0.5 M/L NaCl, 0.05 mol/liter base generator) amounted to 53.6 h; the “Half Life, t1/2” value (109 °F, pH 6.0, 50 psig, 0.5 M/L NaCl, 0.05 mol/liter base generator) was determined as 92.0 h; the “Half Life, t1/2” value (109 °F, pH 7.0, 50 psig, 0.5 M/L NaCl, 0.05 mol/liter base generator) was found to be 35.0 h; the “Half Life, t1/2” value (110 °F, pH 5.5, 50 psig, 0.5 M/L NaCl, 0.05 mol/liter base generator) stood at 439.0 h; the “Half Life, t1/2” value (110 °F, pH 6.5, 50 psig, 0.5 M/L NaCl, 0.05 mol/liter base generator) turned out to be 43.8 h. For the same molecule, the “Half Life, t1/2” value by setting is: (140 °F, pH 6.0, 50 psig, 0.5 M/L NaCl, 0.05 mol/liter base generator) 18.4 h; under setting [1], “too fast”.
